In patent US9776990B2, “Isoindolone derivatives” (AbbVie Inc., priority 2012, dated 2017):

Experiments:
BRD4 (BDI_K57-E168) = BRD4 (BDI_K57-E168) (Homo sapiens (Human), UniProt O60885); assay: TR-FRET bromodomain binding assay, BRD4 first bromodomain; conditions: His-tagged BD1, 100 nM Alexa647 probe
In short: (§1)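 His-tagged BRD4 BD1 or BD2 (8 nM) with Eu-anti-His antibody (1 nM) and Alexa647-labelled BET-inhibitor probe (100 nM BDI, 30 nM BDII); 50 μM−0.85 nM compound, 2% DMSO, phosphate buffer pH 6.0, 1 h at room temperature. TR-FRET IC50 by 4-parameter fit, converted to Ki using probe Kd.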

BRD4 (BDII_E352-M457) = BRD4 (BDII_E352-M457) (Homo sapiens (Human), UniProt O60885); assay: TR-FRET bromodomain binding assay, BRD4 second bromodomain; conditions: His-tagged BD2, 30 nM Alexa647 probe
In short: as §1

[1] = tested on: breast cancer cell line MX-1; assay: MX-1 cell line proliferation assay (3-day, Cell Titer Glo); assay type: cell-based, human; conditions: Homo sapiens, MX1, MX-1 cells, 72 hours, read-out: Cellular proliferation: EC50
SKM1 = assay: Proliferation panel assay, SKM1; assay type: cell-based; conditions: Homo sapiens, SKM-1, 120 h; AML, SKM1, 5 days; read-out: Cellular Proliferation EC50
Procedure: (§2) The impact of compounds of the Examples on cancer cell proliferation was determined using the breast cancer cell line MX-1 (ATCC) in a 3-day proliferation assay. MX-1 cells were maintained in RPMI supplemented with 10% FBS at 37 C.° and an atmosphere of 5% CO2. For compound testing, MX-1 cells were plated in 96-well black bottom plates at a density of 5000 cells/well in 90 μl of culture media and incubated at 37° overnight to allow cell adhesion and spreading. Compound dilution series were prepared in DMSO via a 3-fold serial dilution from 3 mM to 0.1 μM. […]
(§3) Luminescence readings from the Cell Titer Glo assay were normalized to the DMSO treated cells and analyzed using the GraphPad Prism software with sigmoidal curve fitting to obtain EC50s. The minimum significant ratio (MSR) was determined to evaluate assay reproducibility (Eastwood et al., (2006) J Biomol Screen, 11: 253-261). The overall MSR was determined to be 2.1 and a moving MSR (last six run MSR overtime) has been <2.
(§4) The compound of Example 40 was tested for its impact on proliferation of a panel of cancer cell line types (with specific cell lines tested) as set out in (Table 2). […] Cell proliferation data were analyzed as described above in the MX-1 proliferation assay to obtain the EC50 for the compounds reported in Table 2.

EJ-1 = assay: Proliferation panel assay, EJ-1; assay type: cell-based; conditions: EJ1, 120 h; Bladder, EJ-1, 5 days; read-out: Cellular Proliferation EC50
Procedure: as §2, §3, §4

MDAMB231 = assay: Proliferation panel assay, MDAMB231; assay type: cell-based; conditions: Homo sapiens, MDA-MB-231, 120 h; Breast, MDAMB231, 5 days; read-out: Cellular Proliferation EC50
Procedure: as §2, §3, §4

GEO = assay: Proliferation panel assay, GEO; assay type: cell-based; conditions: 120 h, Colon, 5 days, read-out: Cellular Proliferation EC50
Procedure: as §2, §3, §4

FaDu = assay: Proliferation panel assay, FaDu; assay type: cell-based; conditions: Homo sapiens, 120 h, Head & Neck, 5 days, read-out: Cellular Proliferation EC50
Procedure: as §2, §3, §4

A-375 = assay: Proliferation panel assay, A-375; assay type: cell-based; conditions: Homo sapiens, 120 h; Melanoma, A-375, 5 days; read-out: Cellular Proliferation EC50
Procedure: as §2, §3, §4

OPM2 = assay: Proliferation panel assay, OPM2; assay type: cell-based; conditions: Homo sapiens, OPM-2, 120 h; Multiple Myeloma, OPM2, 5 days; read-out: Cellular Proliferation EC50
Procedure: as §2, §3, §4

Ramos = assay: Proliferation panel assay, Ramos; assay type: cell-based; conditions: Homo sapiens, 120 h, NHL, 5 days, read-out: Cellular Proliferation EC50
Procedure: as §2, §3, §4

H1975 = assay: Proliferation panel assay, H1975; assay type: cell-based; conditions: Homo sapiens, NCI-H1975, 120 h; NSCLC, H1975, 5 days; read-out: Cellular Proliferation EC50
Procedure: as §2, §3, §4

H460 = assay: Proliferation panel assay, H460; assay type: cell-based; conditions: Homo sapiens, NCI-H460, 120 h; NSCLC, H460, 5 days; read-out: Cellular Proliferation EC50
Procedure: as §2, §3, §4

BxPC3FP5 = assay: Proliferation panel assay, BxPC3FP5; assay type: cell-based; conditions: 120 h; Pancreas, BxPC3FP5, 5 days; read-out: Cellular Proliferation EC50
Procedure: as §2, §3, §4

Cc1[nH]c(-c2cc(NS(C)(=O)=O)ccc2Oc2ccccc2)c2c1C(=O)CCC2 [Example 40, N-[3-(3-methyl-4-oxo-4,5,6,7-tetrahydro-2H-isoindol-1-yl)-4-phenoxyphenyl]methanesulfonamide]
Ki (BRD4 (BDI_K57-E168)): 15 nM
Ki (BRD4 (BDII_E352-M457)): 43 nM
EC50 [1]: 160 nM
EC50 (SKM1): 39 nM
EC50 (EJ-1): 594 nM
EC50 (MDAMB231): 310 nM
EC50 (GEO): 380 nM
EC50 (FaDu): 180 nM
EC50 (A-375): 168 nM
EC50 (OPM2): 18 nM
EC50 (Ramos): 340 nM
EC50 (H1975): 180 nM
EC50 (H460): > 10000 nM
EC50 (BxPC3FP5): 70 nM
